Assay results from patent US20250296937A1, “CYCLIC BISBENZYL TETRAHYDROISOQUINOLINE COMPOUND, AND PREPARATION METHOD THEREFOR AND USE THEREOF” (Shanghai Institute of Materia Medica, Chinesse Academy of …, priority 2021, published 2025).
Read-outs that look alike come from different tables or passages of the source.

Legend:
ALM12 hepatocytes = assay: Anti H2O2-induced necrotic injury assay in ALM12 hepatocytes (microscopy, CCK-8); format: cell-based; conditions: 2 mM H2O2, 1 μM compound, 3 hours, microscope and CCK-8
Protocol: In this example, the effect of the compounds of the present invention on the level of necrotic injury induced by H2O2 in ALM12 hepatocytes was analyzed by microscopic morphological observations, cell viability in combination with cell death-associated molecules. Cell viability was analyzed by CCK-8 assay. ALM12 cells were cultured in 1640 medium (gibco, c11995500BT)+10% FBS (gibco, 10099141C) in a constant temperature incubator at 37° C., 5% CO2; the CCK-8 kit was purchased from Meilunbio, item no. MA0218-3; H2O2 was purchased from Sinopharm Chemical Reagent Co. item no. 10011208.
Experimental methods: first, 8000 cells/well ALM12 cells were placed in 96-well plates and incubated overnight. On the second day, 0.1% DMSO was added to the control cells, 2 mM H2O2 as well as 0.1% DMSO was added to the model group, 2 mM H2O2 as well as 1 μM of the compounds (oxy, 1, 2, tet, 3, 4, 6, 58) was added to the treatment group, and the 96-well plates were sterilized and incubated in a constant temperature incubator for 3 hours. Finally, cell injury and growth were observed using a microscope; the viability of the cells was detected by CCK-8 kit.

[1] = test system: 2019 novel coronavirus (SARS-CoV-2) original strain; assay: Replication inhibitory activity against SARS-CoV-2 original strain in Vero E6 cells (qRT-PCR); format: cell-based; conditions: Severe acute respiratory syndrome coronavirus 2, Vero C1008; Vero E6 cells, MOI 0.01, 24 h p.i., viral copy number by qRT-PCR; read-out: Inhibition against viral replication of the original strain EC50
Raw 264.7 cells [2] = assay: Cell viability in LPS-induced inflammation model of Raw 264.7 cells (CCK-8); format: cell-based; conditions: 1 μg/ml LPS, 1 μM compound, 16 hours
Protocol: In this example, the effect of the compounds of the present invention on the inflammation level of the LPS-induced inflammation model of Raw 264.7 cells was analyzed by cell viability in combination with inflammatory factors; cell viability was analyzed by CCK-8 assay; and mRNA expression levels of inflammation-related indicators were detected by a real-time quantitative PCR (Q-PCR) method. Raw 264.7 cells were purchased from ATCC; CCK-8 kit was purchased from Meilunbio, item no. MA0218-3; LPS was purchased from Sigma, item no. L2630.
(§1) Experimental methods: first, 8000 cells/well Raw 264.7 cells were placed in 96-well plates and incubated overnight. On the second day, 0.1% DMSO was added to the control cells, 1 μg/ml LPS as well as 0.1% DMSO was added to the model group, 1 μg/ml LPS as well as 1 μM of the compounds (oxyacanthine hydrochloride (oxy), 1, 2, tetrandrine (tet), 3, 4, 6, 58) was added to the treatment group, and the 96-well plates were sterilized and incubated in a constant temperature incubator for 16 hours. Finally, the viability of the cells was detected using the CCK-8 kit.

[3] = biological target: novel coronavirus envelope protein (2-E) ion channel (Severe acute respiratory syndrome coronavirus 2, UniProt P0DTC4); assay: Novel coronavirus envelope protein (2-E) ion channel activity test, planar lipid bilayer (BLM); format: biochemical, SARS-CoV-2; conditions: room temperature, 1, 10, 50, 100 μM, read-out: Inhibition against 2-E ion channels IC50
Chain of novel coronavirus envelope protein (2-E) ion channel (P0DTC4 whole entry, looked up): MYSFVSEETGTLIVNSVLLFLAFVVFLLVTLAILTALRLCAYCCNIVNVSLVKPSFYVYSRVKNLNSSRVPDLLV

hERG potassium channel = biological target: T1, hERG potassium channel (Homo sapiens, UniProt Q12809); assay: hERG potassium channel whole-cell membrane clamp in CHO cells; format: cell-based; conditions: CHO cells stably expressing hERG, whole-cell membrane clamp
T1 construct: expressed in transfected cells
T1 sequence (Q12809 whole entry): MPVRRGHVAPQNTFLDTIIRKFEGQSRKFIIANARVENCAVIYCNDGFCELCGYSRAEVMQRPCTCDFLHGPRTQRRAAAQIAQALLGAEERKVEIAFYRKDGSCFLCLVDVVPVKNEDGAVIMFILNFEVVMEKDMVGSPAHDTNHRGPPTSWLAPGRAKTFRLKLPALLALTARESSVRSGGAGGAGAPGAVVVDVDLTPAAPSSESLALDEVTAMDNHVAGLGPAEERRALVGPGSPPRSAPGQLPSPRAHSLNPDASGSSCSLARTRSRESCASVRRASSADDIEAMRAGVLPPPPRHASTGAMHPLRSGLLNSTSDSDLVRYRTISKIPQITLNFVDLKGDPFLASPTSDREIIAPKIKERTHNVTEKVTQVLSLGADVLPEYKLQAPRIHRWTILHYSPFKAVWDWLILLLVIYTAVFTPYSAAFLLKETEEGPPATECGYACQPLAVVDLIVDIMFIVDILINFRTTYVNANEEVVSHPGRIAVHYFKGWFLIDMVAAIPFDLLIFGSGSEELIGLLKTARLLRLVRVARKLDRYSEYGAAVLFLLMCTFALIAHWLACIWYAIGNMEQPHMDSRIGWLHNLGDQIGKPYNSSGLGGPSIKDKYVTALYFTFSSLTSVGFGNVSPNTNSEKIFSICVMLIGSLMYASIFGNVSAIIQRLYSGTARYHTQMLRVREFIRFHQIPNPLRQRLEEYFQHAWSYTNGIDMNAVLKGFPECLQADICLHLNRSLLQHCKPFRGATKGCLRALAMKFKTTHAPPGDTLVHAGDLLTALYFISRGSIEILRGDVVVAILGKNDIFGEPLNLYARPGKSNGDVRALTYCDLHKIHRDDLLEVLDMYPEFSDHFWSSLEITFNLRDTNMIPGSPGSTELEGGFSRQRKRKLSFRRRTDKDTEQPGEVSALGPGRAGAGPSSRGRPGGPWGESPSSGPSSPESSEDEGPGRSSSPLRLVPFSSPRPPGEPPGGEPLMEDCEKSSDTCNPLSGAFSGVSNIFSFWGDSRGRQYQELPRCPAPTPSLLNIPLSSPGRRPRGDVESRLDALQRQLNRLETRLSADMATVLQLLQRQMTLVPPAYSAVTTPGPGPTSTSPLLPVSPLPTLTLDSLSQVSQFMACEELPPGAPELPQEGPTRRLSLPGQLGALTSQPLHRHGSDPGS
Protocol: Compounds were given for at least 1 min for each tested concentration, and at least 2 cells (n≥2) were tested per concentration.

HCoV OC43 virus = assay: Inhibition against HCoV OC43 virus replication; format: cell-based, human coronavirus HCoV OC43; conditions: Betacoronavirus 1, OC43
[4] = Cytotoxicity test on Vero E6 cells (CCK8); format: cell-based; conditions: African green monkey; Vero E6 cells, CCK8 kit
Protocol: (§2) In this embodiment, the half toxicity concentration of each embodiment on Vero E6 cells was determined by CCK8 kit analysis (CC50).

Raw 264.7 cells [5] = assay: Cell viability in TNF-α induced inflammation model of Raw 264.7 cells (CCK-8); format: cell-based; conditions: 10 ng/ml TNF-α, 1 μM compound, 16 hours
Protocol: In this embodiment, the effect of compounds on TNF-α-induced inflammation levels in Raw 264.7 cells was analyzed by cell viability combined with inflammatory factor expression levels; cell viability was analyzed by CCK-8 assay; and mRNA expression levels of inflammation-associated indicators were detected by real-time quantitative PCR (Q-PCR) method. Raw 264.7 cells were purchased from ATCC, CCK-8 kit was purchased from Meilunbio, item number MA0218-3, TNF-α was purchased from Merck, item no. GF314.
as §1, with “10 ng/ml TNF-α” for “1 μg/ml LPS”

Vero E6 cells = assay: Cytotoxicity test on Vero E6 cells (CCK8); format: cell-based
Protocol: as §2

Structure (SMILES) | EC50 [1] | IC50 (hERG potassium channel) | IC50 [4] | also measured
COc1cc2c3cc1Oc1c(OC)c(OC)cc4c1[C@H](Cc1ccc(cc1)Oc1cc(ccc1C#N)C[C@H]3N(C)CC2)N(C)CC4 [Compound 1] | 0.1 to 1 µM | 6.4 µM | 10 to 30 µM | alleviation of H2O2-induced ALM12 hepatocyte injury (ALM12 hepatocytes): significantly alleviated; cell viability in LPS-induced inflammation model (Raw 264.7 cells [2]): did not affect cell viability; IC50 [3]: < 10 µM; EC50 (HCoV OC43 virus): 4.2 µM; cell viability in TNF-α-induced inflammation model (Raw 264.7 cells [5]): did not affect cell viability
CNC(=O)c1ccc2cc1Oc1ccc(cc1)C[C@H]1c3c(cc(OC)c(OC)c3Oc3cc4c(cc3OC)CCN(C)[C@@H]4C2)CCN1C [Compound 5] | 1 to 10 µM | 9.4 µM | > 50 µM | cytotoxicity on Vero E6 cells compared with oxyacanthine hydrochloride (Vero E6 cells; Vero E6 cells): weaker cytotoxicity than oxyacanthine hydrochloride
COc1cc2c3cc1Oc1c(OC)c(OC)cc4c1[C@H](Cc1ccc(cc1)Oc1cc(ccc1C(=O)O)C[C@H]3N(C)CC2)N(C)CC4 [Compound 7] | – | > 40 µM | > 50 µM | IC50 [3]: 10 to 30 µM
COc1cc2c3cc1Oc1c(OC)c(OC)cc4c1[C@H](Cc1ccc(cc1)Oc1cc(ccc1CO)C[C@H]3N(C)CC2)N(C)CC4 [Compound 9] | 0.5 to 1.5 µM | – | > 50 µM | IC50 [3]: 10 to 30 µM; EC50 (HCoV OC43 virus): 3 µM
COc1cc2c3cc1Oc1c(OC)c(OC)cc4c1[C@H](Cc1ccc(cc1)Oc1cc(cc5[nH]c(=O)oc15)C[C@H]3N(C)CC2)N(C)CC4 [Compound 17] | 0.1 to 1 µM | – | 10 to 30 µM | –
COc1cc2c3cc1Oc1c(OC)c(OC)cc4c1[C@H](Cc1ccc(cc1)Oc1cc(ccc1C(C)=O)C[C@H]3N(C)CC2)N(C)CC4 [Compound 19] | 0.5 to 1.5 µM | – | 30 to 50 µM | –
COc1cc2c3cc1Oc1c(OC)c(OC)cc4c1[C@H](Cc1ccc(cc1)Oc1cc(ccc1C(=O)NC1CCCC1)C[C@H]3N(C)CC2)N(C)CC4 [Compound 22] | 0.5 to 1.5 µM | – | 10 to 30 µM | –
COc1cc2c3cc1Oc1c(OC)c(OC)cc4c1[C@H](Cc1ccc(cc1)Oc1cccc(c1)C[C@H]3N(C)CC2)N(C)CC4 [Compound 33] | 0.1 to 1 µM | > 40 µM | 10 to 30 µM | EC50 (HCoV OC43 virus): 4.1 µM
C=C(C)c1ccc2cc1Oc1ccc(cc1)C[C@H]1c3c(cc(OC)c(OC)c3Oc3cc4c(cc3OC)CCN(C)[C@@H]4C2)CCN1C [Compound 34] | 0.5 to 1.5 µM | – | 10 to 30 µM | IC50 [3]: < 10 µM
COc1cc2c3cc1Oc1c(OC)c(OC)cc4c1[C@H](Cc1ccc(cc1)Oc1cc(ccc1C)C[C@H]3N(C)CC2)N(C)CC4 [Compound 35] | 1 to 5 µM | – | 10 to 30 µM | –
CCCCCNC(=O)c1ccc2cc1Oc1ccc(cc1)C[C@H]1c3c(cc(OC)c(OC)c3Oc3cc4c(cc3OC)CCN(C)[C@@H]4C2)CCN1C [Compound 37] | 1 to 5 µM | > 20 µM | 10 to 30 µM | IC50 [3]: < 10 µM
COc1cc2c3cc1Oc1c(OC)c(OC)cc4c1[C@H](Cc1ccc(cc1)Oc1cc(ccc1C1CC1)C[C@H]3N(C)CC2)N(C)CC4 [Compound 38] | 1 to 5 µM | – | 10 to 30 µM | –
COc1cc2c3cc1Oc1c(OC)c(OC)cc4c1[C@H](Cc1ccc(cc1)Oc1cc(ccc1C(C)O)C[C@H]3N(C)CC2)N(C)CC4 (stereo partly shown) [Compound 40] | 0.1 to 1 µM | – | 30 to 50 µM | –
COc1cc2c3cc1Oc1c(OC)c(OC)cc4c1[C@H](Cc1ccc(cc1)Oc1cc(ccc1C(=O)Nc1ccccc1)C[C@H]3N(C)CC2)N(C)CC4 [Compound 45] | 1 to 5 µM | > 20 µM | 10 to 30 µM | IC50 [3]: < 10 µM
COc1cc2c3cc1Oc1c(OC)c(OC)cc4c1[C@H](Cc1ccc(cc1)Oc1cc(ccc1C(=O)NC(C)C)C[C@H]3N(C)CC2)N(C)CC4 [Compound 48] | 0.1 to 1 µM | – | 10 to 30 µM | –
COc1cc2c3cc1Oc1c(OC)c(OC)cc4c1[C@H](Cc1ccc(cc1)Oc1cc(ccc1C(=O)NC15CC6CC(CC(C6)C1)C5)C[C@H]3N(C)CC2)N(C)CC4 [Compound 49] | 0.1 to 1 µM | – | 5 to 10 µM | –
COc1cc2c3cc1Oc1c(OC)c(OC)cc4c1[C@H](Cc1ccc(cc1)Oc1cc(ccc1C(=O)NC1CCC1)C[C@H]3N(C)CC2)N(C)CC4 [Compound 50] | 0.1 to 1 µM | 4.5 µM | 30 to 50 µM | –
COc1cc2c3cc1Oc1c(OC)c(OC)cc4c1[C@H](Cc1ccc(cc1)Oc1cc(ccc1C(=O)Nc1cccnc1)C[C@H]3N(C)CC2)N(C)CC4 [Compound 51] | 0.1 to 1 µM | – | 10 to 30 µM | –
COc1ccc(NC(=O)c2ccc3cc2Oc2ccc(cc2)C[C@H]2c4c(cc(OC)c(OC)c4Oc4cc5c(cc4OC)CCN(C)[C@@H]5C3)CCN2C)cc1 [Compound 52] | 0.1 to 1 µM | – | 10 to 30 µM | –
COc1cc2c3cc1Oc1c(OC)c(OC)cc4c1[C@H](Cc1ccc(cc1)Oc1cc(ccc1C(=O)C1CC1)C[C@H]3N(C)CC2)N(C)CC4 [Compound 54] | 1 to 5 µM | – | 10 to 30 µM | –
COc1cc2c3cc1Oc1c(OC)c(OC)cc4c1[C@H](Cc1ccc(cc1)Oc1cc(ccc1C(=O)NCCOCCO)C[C@H]3N(C)CC2)N(C)CC4 [Compound 55] | 1 to 5 µM | > 40 µM | > 100 µM | –
COc1cc2c3cc1Oc1c(OC)c(OC)cc4c1[C@@H](Cc1ccc(O)c(c1)Oc1ccc(cc1)C[C@@H]3N(C)CC2)N(C)CC4 [berbamine, reference compound] | – | – | – | cytotoxicity (background statement) (Vero E6 cells; inventors' screening of natural products): high cytotoxicity
COc1ccc2cc1Oc1ccc(cc1)C[C@H]1c3cc(c(OC)cc3CCN1C)Oc1c(OC)c(OC)cc3c1[C@H](C2)N(C)CC3 [tetrandrine, reference compound] | – | – | – | cytotoxicity (background statement) (Vero E6 cells): high cytotoxicity
